Laboratory results reported in the supplement of paper PMC6331611.
≈ marks a conversion by molar mass, not a printed value. Structures can show the parent of a compound that is named as a salt.

What was measured:
[1] = tested on: Salmonella enterica serovar Typhimurium SL1344
[2] = tested on: RAW264.7; experiment: cytotoxicity (LDH release relative to maximum lysis); higher = more toxic; details: 50 µM; 2 h
[3] = tested on: Salmonella enterica serovar Typhimurium SL1344; experiment: intracellular MIC (10-fold luminescence reduction); higher = less potent; details: RAW264.7 macrophages

Compound	MIC ([1]; LPM pH 5.8) [µM]	MIC ([1]; MHB) [µM]	MIC ([1]; MOPS glucose minimal medium) [µM]	intracellular MIC [3] [µM]	cytotoxicity [2] [%]
CC(=O)OC1CN2CCC1CC2 (centres undefined) [ACECLIDINE]	> 50	> 50	> 50	> 50	20.3
CO[C@H]1O[C@@H]2O[C@@]3(C)CC[C@H]4[C@H](C)CC[C@@H]([C@H]1C)[C@@]24OO3 [ARTEMETHER]	50 (≈ 14.9 µg/mL)	> 50	> 50	12.5	7.51
CCCCC(=O)O[C@]1(C(=O)CO)[C@@H](C)C[C@H]2[C@@H]3CCC4=CC(=O)C=C[C@]4(C)[C@@]3(F)[C@@H](O)C[C@@]21C [BETAMETHASONE VALERATE]	> 50	> 50	> 50	12.5	6.63
O=C(CCCN1CCC(O)(c2ccc(Br)cc2)CC1)c1ccc(F)cc1 [BROMPERIDOL]	> 50	> 50	> 50	≤ 0.78	15
COc1cc(CNC(=O)CCCC/C=C/C(C)C)ccc1O [CAPSAICIN]	> 50	> 50	> 50	> 50	19.5
COC(=O)N/N=C/c1c[n+]([O-])c2ccccc2[n+]1[O-] [CARBADOX]	25 (≈ 6.56 µg/mL)	> 50	50 (≈ 13.1 µg/mL)	≤ 0.78	15.6
CO/N=C(\C(=O)N[C@@H]1C(=O)N2C(C(=O)OCOC(=O)C(C)(C)C)=C(/C=C\c3scnc3C)CS[C@H]12)c1csc(N)n1 [CEFDITORIN PIVOXIL]	50 (≈ 31 µg/mL)	50 (≈ 31 µg/mL)	25 (≈ 15.5 µg/mL)	> 50	21
CO/N=C(\C(=O)N[C@@H]1C(=O)N2C(C(=O)O)=C(CSc3nnnn3C)CS[C@H]12)c1csc(N)n1 [CEFMENOXIME HYDROCHLORIDE]	1.17	≤ 0.78	≤ 0.78	1.56	8.15
COc1ccc2cc1Oc1ccc(cc1)C[C@H]1c3c(cc4c(c3Oc3cc5c(cc3OC)CCN(C)[C@@H]5C2)OCO4)CCN1C [CEPHARANTHINE]	> 50	> 50	> 50	> 50	13.1
CCCCCCCCCCCCCCCC[n+]1ccccc1 [CETYLPYRIDINIUM CHLORIDE]	12.5	50	12.5	≤ 0.78	63
O=C(O)CCC(=O)OC[C@@H](NC(=O)C(Cl)Cl)[C@H](O)c1ccc([N+](=O)[O-])cc1 [CHLORAMPHENICOL SODIUM SUCCINATE]	6.25	25	12.5	≤ 0.78	8.03
O=C(N[C@H](CO)[C@H](O)c1ccc([N+](=O)[O-])cc1)C(Cl)Cl [CHLORAMPHENICOL]	≤ 0.78	12.5 (≈ 4.04 µg/mL)	3.13 (≈ 1.01 µg/mL)	≤ 0.78	8.21
Cc1nc2ccccc2n1Cc1ccc(Cl)cc1 [CHLORMIDAZOLE]	> 50	> 50	> 50	≤ 0.78	12.9
CC(C)NC(=N)NC(=N)Nc1ccc(Cl)cc1 [CHLOROGUANIDE HYDROCHLORIDE]	> 50	> 50	> 50	> 50	6.72
Oc1c(Cl)cc(Cl)c2cccnc12 [CHLOROXINE]	≤ 0.78	25 (≈ 5.35 µg/mL)	25 (≈ 5.35 µg/mL)	> 50	20.5
CN(C)[C@@H]1C(O)=C(C(N)=O)C(=O)[C@@]2(O)C(O)=C3C(=O)c4c(O)ccc(Cl)c4[C@@](C)(O)[C@H]3C[C@@H]12 [CHLORTETRACYCLINE HYDROCHLORIDE]	≤ 0.78	25	6.25	≤ 0.78	8.37
Cc1cc(C2CCCCC2)n(O)c(=O)c1 [CICLOPIROX OLAMINE]	≤ 0.78	> 50	> 50	> 50	15.5
CCn1nc(C(=O)O)c(=O)c2cc3c(cc21)OCO3 [CINOXACIN]	≤ 0.78	> 50	> 50	≤ 0.78	8.11
O=C(O)c1cn(C2CC2)c2cc(N3CCNCC3)c(F)cc2c1=O [CIPROFLOXACIN]	> 50		≤ 0.78	≤ 0.78	21.5
NC1CCN(c2c(F)cc3c(=O)c(C(=O)O)cn(C4CC4)c3c2Cl)C1 (centres undefined) [CLINAFOXACIN HYDROCHLORIDE]	≤ 0.78	≤ 0.78	≤ 0.78	≤ 0.78	15.8
Oc1c(I)cc(Cl)c2cccnc12 [CLIOQUINOL]	≤ 0.78	50 (≈ 15.3 µg/mL)	50 (≈ 15.3 µg/mL)	> 50	20
O=S(=O)(O)NC1CCCCC1 [CYCLAMIC ACID]	> 50	> 50	> 50	> 50	7.97
CN1CCC(=C2c3ccccc3C=Cc3ccccc32)CC1 [CYPROHEPTADINE HYDROCHLORIDE]	> 50	> 50	> 50	> 50	6.22
CN(C)[C@@H]1C(O)=C(C(N)=O)C(=O)[C@@]2(O)C(O)=C3C(=O)c4c(O)ccc(Cl)c4[C@@H](O)[C@H]3C[C@@H]12 [DEMECLOCYCLINE HYDROCHLORIDE]	≤ 0.78	6.25	1.56	≤ 0.78	8.71
CN(C)CC(c1ccc(O)cc1)C1(O)CCCCC1 (centres undefined) [DESVENLAFAXINE SUCCINATE]	> 50	> 50	> 50	25	8.25
COc1ccc(Cc2cnc(N)nc2N)cc1OC [DIAVERIDINE]	50 (≈ 13 µg/mL)	1.56 (≈ 0.406 µg/mL)	6.25 (≈ 1.63 µg/mL)	1.56	6.9
CN1CCN(c2cc3c(cc2F)c(=O)c(C(=O)O)cn3-c2ccc(F)cc2)CC1 [DIFLOXACIN HYDROCHLORIDE]	≤ 0.78	≤ 0.78	≤ 0.78	1.56	6.88

Now from value to molecule, other results behind:

MIC ([1]; LPM pH 5.8) [µM]	MIC ([1]; MHB) [µM]	MIC ([1]; MOPS glucose minimal medium) [µM]	intracellular MIC [3] [µM]	Compound	cytotoxicity [2] [%]
≤ 0.78	≤ 0.78	≤ 0.78	> 50	CCOC(=O)C1=C(COCCN)NC(C)=C(C(=O)OC)C1c1ccccc1Cl (centres undefined) [AMLODIPINE BESYLATE]	22.5
≤ 0.78	25 (≈ 6.11 µg/mL)	≤ 0.78	≤ 0.78	Nc1ncn([C@@H]2O[C@H](CO)[C@@H](O)[C@H]2O)c(=O)n1 [AZACITIDINE]	16.4
≤ 0.78	≤ 0.78	≤ 0.78	≤ 0.78	CC[C@H]1OC(=O)[C@H](C)[C@@H](O[C@H]2C[C@@](C)(OC)[C@@H](O)[C@H](C)O2)[C@H](C)[C@@H](O[C@@H]2O[C@H](C)C[C@H](N(C)C)[C@H]2O)[C@](C)(O)C[C@@H](C)CN(C)[C@H](C)[C@@H](O)[C@]1(C)O [AZITHROMYCIN]	21.1
≤ 0.78	≤ 0.78	≤ 0.78	1.56	C[C@H]1[C@H](NC(=O)/C(=N\OC(C)(C)C(=O)O)c2csc(N)n2)C(=O)N1S(=O)(=O)O [AZTREONAM]	6.82
≤ 0.78	50 (≈ 15.1 µg/mL)	50 (≈ 15.1 µg/mL)	> 50	Oc1c(Br)cc(Br)c2cccnc12 [BROXYQUINOLINE]	15
≤ 0.78	> 50	≤ 0.78	1.56	CCCCCCNC(=O)n1cc(F)c(=O)[nH]c1=O [CARMOFUR]	13.7
≤ 0.78	≤ 0.78	≤ 0.78	> 50	C=CC1=C(C(=O)O)N2C(=O)[C@@H](NC(=O)/C(=N\O)c3csc(N)n3)[C@H]2SC1 [CEFDINIR]	19.4
≤ 0.78	≤ 0.78	≤ 0.78	≤ 0.78	CO/N=C(\C(=O)N[C@@H]1C(=O)N2C(C(=O)O)=C(C[N+]3(C)CCCC3)CS[C@H]12)c1csc(N)n1 [CEFEPIME HYDROCHLORIDE]	15.4
≤ 0.78	≤ 0.78	≤ 0.78	≤ 0.78	CO/N=C(\C(=O)N[C@@H]1C(=O)N2C(C(=O)O)=C(COC(C)=O)CS[C@H]12)c1csc(N)n1 [CEFOTAXIME SODIUM]	7.17
≤ 0.78	≤ 0.78	≤ 0.78	1.56	CO[C@@]1(NC(=O)C2SC(=C(C(N)=O)C(=O)O)S2)C(=O)N2C(C(=O)O)=C(CSc3nnnn3C)CS[C@@H]21 (some centres undefined) [CEFOTETAN]	7.79
≤ 0.78	12.5 (≈ 6.83 µg/mL)	≤ 0.78	> 50	CC(C)(O/N=C(\C(=O)N[C@@H]1C(=O)N2C(C(=O)[O-])=C(C[n+]3ccccc3)CS[C@H]12)c1csc(N)n1)C(=O)O [CEFTAZIDIME]	20.8
≤ 0.78	≤ 0.78	≤ 0.78	> 50	Nc1nc(/C(=C/CC(=O)O)C(=O)N[C@@H]2C(=O)N3C(C(=O)O)=CCS[C@H]23)cs1 [CEFTIBUTEN]	21
≤ 0.78	≤ 0.78	≤ 0.78	≤ 0.78	CO/N=C(\C(=O)N[C@@H]1C(=O)N2C(C(=O)O)=C(CSC(=O)c3ccco3)CS[C@H]12)c1csc(N)n1 [CEFTIOFUR HYDROCHLORIDE]	15.6
≤ 0.78	≤ 0.78	≤ 0.78	> 50	CO/N=C(\C(=O)N[C@@H]1C(=O)N2C(C(=O)O)=C(CSc3nc(=O)c(O)nn3C)CS[C@H]12)c1csc(N)n1 [CEFTRIAXONE SODIUM TRIHYDRATE]	19.6
